The values that follow come from patent US20080311045A1, “Polymersomes for Use in Acoustically Mediated Intracellular Drug Delivery in vivo” (Biovaluation & Analysis, Inc., priority 2007, published 2008).

Data set [1] can be described thus: Micropipette aspiration of polymersome membranes (elastic moduli, rupture, toughness). In kind it is physicochemical. Particulars: micropipette aspiration at 23° C. As for the experimental part: A tool that has been used to measure many of the material properties of bilayer vesicles is, for example, “micropipette aspiration.” In micropipette aspiration, the rheology and material properties of micron-sized objects are measured using glass pipettes. Small, micron diameter pipettes are used to pick up, deform, and manipulate micron-sized objects, such as giant lipid vesicles. The aspiration pressure is controlled by manometers, in which the hydrostatic pressure in a reservoir connected to the micropipette is varied in relation to a fixed reference.
A deformable object is aspirated using a pressure driving force—or suction pressure—ΔP, and the object is drawn within the pipette to a projection length LP. […] The bending modulus is measured by exerting small tensions on the membrane, to smooth out thermally driven surface undulations. […] Procedures for this important technique and its many modification are readily available to those skilled in the art. […]
Analogous to a lipid bilayer, at low but increasing aspiration pressures, the thermally undulating polymersome membrane is progressively smoothed, increasing the projected area logarithmically with tension, τ. From the slope of this increase (i.e., in tension units of mN/m) versus the fractional change, α, in vesicle area, the bending modulus, Kb, is calculated (see, e.g., Evans et al., 1990) with the following equation: […]

The nature of data set [2]: Laser-photobleaching lipid probe diffusivity in membranes. The class given is physicochemical.

On to `CCCCCCCC/C=C\CCCCCCCC(=O)O[C@H](COC(=O)CCCCCCCCCCCCCCCCC)COP(=O)([O-])OCC[N+](C)(C)C` [SOPC, 1-stearoyl-2-oleoyl phosphatidylcholine], for which the “area expansion modulus, Ka” value in data set [1] was ~180 mN/m. For the same molecule, the lipid probe diffusivity result in data set [2] is “approximately 3×10^−8 cm^2/s”.
